We go through eight compounds from ChEMBL document CHEMBL3132802, “Azole derivatives as novel non-iron-chelating inhibitors of prolyl hydroxylase 3 for HIF-1 activation” (Medchemcomm, 2013).

One data set addresses Prolyl hydroxylase EGLN3 (Homo sapiens, UniProt Q9H6Z9). Kind of data set: Inhibition of recombinant human PHD3 expressed in Escherichia coli using HIF19 peptide as substrate by fluorescence emission spectroscopy.
Data set [1] has as its system NCI-H446. Kind of data set: Effect on HIF1alpha mRNA expression in human NCI-H446 cells after 12 hrs by RT-PCR analysis. The class given is functional, cell-based.
The subject of data set [2] is NCI-H446. Kind of data set: Cytotoxicity against human NCI-H446 cells assessed as proliferation rate up to 200 uM after 24 hrs by MTT assay. The note with it: nci-h446, 24 h. Format: cell-based. For orientation: Tetrazolium assays rely on reduction of a dye to a coloured formazan, in cell work by metabolically active cells.
Data set [3] can be described thus: Cytotoxicity against human NCI-H446 cells assessed as cell survival up to 200 uM after 24 hrs by MTT assay. The class given is cell-based. The note with it: read-out: Survival.

Calls of active or inactive are those of the source. The rule behind the calls is not given here.

Broadly, the IC50 is the midpoint of a concentration-inhibition curve.

Chain of Prolyl hydroxylase EGLN3 (Q9H6Z9 whole entry): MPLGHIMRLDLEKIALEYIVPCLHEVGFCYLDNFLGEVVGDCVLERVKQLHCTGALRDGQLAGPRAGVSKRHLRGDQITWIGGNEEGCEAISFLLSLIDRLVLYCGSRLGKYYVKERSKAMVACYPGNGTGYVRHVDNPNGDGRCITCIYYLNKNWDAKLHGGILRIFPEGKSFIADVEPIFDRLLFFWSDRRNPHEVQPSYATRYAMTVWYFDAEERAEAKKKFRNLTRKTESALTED

Turning to `c1ccc2[nH]nnc2c1` [BENZOTRIAZOLE], the IC50 on Prolyl hydroxylase EGLN3 was > 100 µM. On to `O=C(O)CCn1cncn1`, for which the outcome in the data set on NCI-H446 [1] was inactive. In addition, in the data set on NCI-H446 [2], the Activity is on record as > 80%. With `O=C(O)CCn1nnc2ccccc21`, the outcome in the data set with NCI-H446 [1] was inactive. For the same compound, the viability at 24 h in data set [3] was > 90%.

Consider `c1ccc2[nH]c(CCn3nnc4ccccc43)nc2c1`, for which the outcome in the data set on NCI-H446 [1] was inactive. Besides, the viability at 24 h in data set [3] is > 90%. `c1ccc2[nH]c(CCn3cncn3)nc2c1`: in the data set with NCI-H446 [1], the result was inactive. The Activity in the data set with NCI-H446 [2] is reported as > 80%. The matching figures for `O=C(O)CCn1cnc2ccccc21`: “inactive” and > 80%. With `c1ccc2[nH]cnc2c1` [BENZIMIDAZOLE], the IC50 at Prolyl hydroxylase EGLN3 is > 100 µM. Take `O=C(O)CCn1ccnc1`: the outcome in the data set with NCI-H446 [1] was inactive. In data set [3], the viability at 24 h was > 90%.
